From US20220169632A1, “METHODS AND MATERIALS FOR INCREASING OR MAINTAINING NICOTINAMIDE MONONUCLEOTIDE ADENYLYL TRANSFERASE-2 (NMNAT2) POLYPEPTIDE LEVELS” (University of Pittsburgh - Of the Commonwealth System of …, priority 2019, published 2022)

System: NMNAT2
Test: NMNAT2-Hibit nano-luciferase activity in stably transfected U87MG cells, various concentrations, 24 hours
Format: cell-based
Conditions: U87MG cells stably transfected with NMNAT2-Hibit luc plasmid
Protocol: Selected compounds were tested in vitro. U87MG cells were stably transfected with NMNAT2-Hibit luc plasmid. Cells were treated with a test compound at various concentrations for 24 hours. Cells were then collected and assayed for nano-luciferase activity.

SMILES	E: compound efficacy for NMNAT2 activation (concentration giving >25% increase in NMNAT2 luciferase activity)
O=C(NCc1cccc(F)c1)C1CCc2c(c3ccccc3n2Cc2cccc(F)c2)C1 (centres unmarked) [BC20222]	+ (“+” >25% increase in NMNAT2 luciferase activity at >25 μM.)

System: NMNAT2
Test: NMNAT2-Hibit nano-luciferase activity in transfected U87MG cells, 25 μM, 24 hours
Format: cell-based
Conditions: NMNAT2-Hibit luc plasmid, 24 hours (Table B)
Protocol: Selected compounds were tested in vitro. Briefly, U87MG cells were transfected with NMNAT2-Hibit luc plasmid. Cells were treated with a test compound at 25 μM for 24 hours. Cells were then collected and assayed for nano-luciferase activity.

SMILES	B: compound efficacy (IC50) for NMNAT2 activation; increase in NMNAT2 luciferase activity
CCc1ccc(NC(=O)NCc2noc3ccccc23)cc1 [Compound 181009]	+ (“+” <20% increase in NMNAT2 luciferase activity.)
Cc1ccc2onc(CNC(=O)NCc3ccc(Cl)cc3)c2c1 [Compound 181082]	++ (“++” >20% and <100% increase in NMNAT2 luciferase activity.)
COc1ccc(NC(=O)NCc2noc3ccc(C)cc23)cc1Cl [Compound 181041]	+ (“+” <20% increase in NMNAT2 luciferase activity.)
CSc1ccc(CCNC(=O)NCc2noc3ccccc23)cc1 [Compound 181033]	++ (“++” >20% and <100% increase in NMNAT2 luciferase activity.)
COc1ccc(NC(=O)NCc2noc3ccccc23)cc1 [Compound 181026]	+ (“+” <20% increase in NMNAT2 luciferase activity.)
Cc1ccccc1N(C)C(=O)NCc1noc2ccccc12 [Compound 181012]	+ (“+” <20% increase in NMNAT2 luciferase activity.)
Cc1ccc2onc(CNC(=O)Nc3ccc(C)c(F)c3)c2c1 [Compound 181039]	+ (“+” <20% increase in NMNAT2 luciferase activity.)
COc1ccccc1CNC(=O)NCc1noc2ccc(C)cc12 [Compound 181044]	+ (“+” <20% increase in NMNAT2 luciferase activity.)
CC(NC(=O)NCc1noc2ccccc12)c1ccccc1 (centres unmarked) [Compound 181034]	+ (“+” <20% increase in NMNAT2 luciferase activity.)
O=C(NCc1ccccc1)NCc1noc2ccccc12 [Compound 181036]	+ (“+” <20% increase in NMNAT2 luciferase activity.)
CN(C(=O)NCc1noc2ccccc12)c1ccc(Br)cc1 [Compound 181015]	+ (“+” <20% increase in NMNAT2 luciferase activity.)
COc1ccc(OC)c(CNC(=O)NCc2noc3ccc(C)cc23)c1 [Compound 181072]	+ (“+” <20% increase in NMNAT2 luciferase activity.)
Cc1cc(C)cc(NC(=O)NCc2noc3ccccc23)c1 [Compound 181035]	+ (“+” <20% increase in NMNAT2 luciferase activity.)
Cc1ccc(CCNC(=O)NCc2noc3ccccc23)cc1 [Compound 181030]	+ (“+” <20% increase in NMNAT2 luciferase activity.)
CCc1ccc(NC(=O)NCc2noc3ccc(C)cc23)cc1 [Compound 181052]	+ (“+” <20% increase in NMNAT2 luciferase activity.)
CC(=O)c1cccc(NC(=O)NCc2noc3ccc(C)cc23)c1 [Compound 181084]	+ (“+” <20% increase in NMNAT2 luciferase activity.)
CCOc1ccc(CCNC(=O)NCc2noc3ccc(C)cc23)cc1 [Compound 181088]	+ (“+” <20% increase in NMNAT2 luciferase activity.)
Cc1cc(C)cc(NC(=O)NCc2noc3ccc(C)cc23)c1 [Compound 181091]	+ (“+” <20% increase in NMNAT2 luciferase activity.)
CN(C(=O)NCc1noc2ccccc12)c1cccc(Cl)c1 [Compound 181013]	+ (“+” <20% increase in NMNAT2 luciferase activity.)
CSc1ccc(CCNC(=O)NCc2noc3ccc(C)cc23)cc1 [Compound 181089]	++ (“++” >20% and <100% increase in NMNAT2 luciferase activity.)
Cc1ccc(CNC(=O)NCc2noc3ccccc23)cc1 [Compound 181022]	+ (“+” <20% increase in NMNAT2 luciferase activity.)
Cc1ccc2onc(CNC(=O)NC3CCCC(C)C3C)c2c1 (centres unmarked) [Compound 181046]	+ (“+” <20% increase in NMNAT2 luciferase activity.)
COc1ccc(NC(=O)NCc2noc3ccccc23)cc1Cl [Compound 181006]	+ (“+” <20% increase in NMNAT2 luciferase activity.)
Cc1ccc2onc(CNC(=O)N(C)c3ccc(F)cc3)c2c1 [Compound 181087]	+ (“+” <20% increase in NMNAT2 luciferase activity.)
Cc1ccc2onc(CNC(=O)NCc3cccnc3)c2c1 [Compound 181051]	+ (“+” <20% increase in NMNAT2 luciferase activity.)
Cc1ccc2onc(CNC(=O)NC(C)c3ccccc3)c2c1 (centres unmarked) [Compound 181090]	+ (“+” <20% increase in NMNAT2 luciferase activity.)
Cc1ccc2onc(CNC(=O)NC3CCCCC3C)c2c1 (centres unmarked) [Compound 181085]	+ (“+” <20% increase in NMNAT2 luciferase activity.)
CCc1ccccc1NC(=O)NCc1noc2ccccc12 [Compound 181024]	+ (“+” <20% increase in NMNAT2 luciferase activity.)
Cc1ccc2onc(CNC(=O)NCc3ccc(F)cc3)c2c1 [Compound 181047]	++ (“++” >20% and <100% increase in NMNAT2 luciferase activity.)
CCc1cccc(NC(=O)NCc2noc3ccc(C)cc23)c1 [Compound 181067]	+ (“+” <20% increase in NMNAT2 luciferase activity.)

Same assay, conditions: NMNAT2-Hibit luc plasmid, 24 hours (Table C)

SMILES	C: Compound efficacy for NMNAT2 activation; increase in NMNAT2 luciferase activity
O=C(Cn1cc(C(=O)c2ccccc2)c2ccccc21)NCc1ccco1 [Compound 181106]	+++ (“+++” >100% increase in NMNAT2 luciferase activity.)
CCn1c(=O)c(=O)n(CC(=O)NCc2ccco2)c2ccccc21 [Compound 181138]	+ (“+” <20% increase in NMNAT2 luciferase activity.)
O=C(Cn1ccc2ccccc21)NCc1ccc(F)cc1 [Compound 181148]	++ (“++” >20% and <100% increase in NMNAT2 luciferase activity.)
O=C(Cn1cc(C(=O)C(F)(F)F)c2cc(Br)ccc21)NCc1ccco1 [Compound 181103]	+ (“+” <20% increase in NMNAT2 luciferase activity.)
Cc1cc(C)n(CC(=O)Nc2ccc(C(=O)NCc3ccco3)cc2)c(=O)c1C#N [Compound 181133]	+ (“+” <20% increase in NMNAT2 luciferase activity.)
COc1ccc(CNC(=O)Cn2ccc3ccc(F)cc32)cc1OC [Compound 181150]	+ (“+” <20% increase in NMNAT2 luciferase activity.)
Cc1ccc(C(CC(=O)NCc2ccco2)c2cn(C)c3ccccc23)cc1 (centres unmarked) [Compound 181142]	+ (“+” <20% increase in NMNAT2 luciferase activity.)
O=C(NCCn1ccc2cc(Br)ccc21)c1ccco1 [Compound 181158]	+ (“+” <20% increase in NMNAT2 luciferase activity.)
Cc1ccc2c(c1)n(CC(=O)NCc1ccco1)c(=O)c1cccn12 [Compound 181113]	+ (“+” <20% increase in NMNAT2 luciferase activity.)
Cc1cc2ccccc2c(=O)n1CC(=O)NCc1ccco1 [Compound 181112]	+ (“+” <20% increase in NMNAT2 luciferase activity.)
O=C(Cn1cc(C(=O)C(F)(F)F)c2ccccc21)NCc1ccco1 [Compound 181101]	+ (“+” <20% increase in NMNAT2 luciferase activity.)
O=C(Cn1ccc2ccccc21)NCc1ccco1 [Compound 181147]	+ (“+” <20% increase in NMNAT2 luciferase activity.)
O=C(Cn1ccc2ccc(F)cc21)NCc1ccco1 [Compound 181152]	+ (“+” <20% increase in NMNAT2 luciferase activity.)
CCn1cc(CCC(=O)NCc2ccco2)c2ccccc21 [Compound 181115]	+ (“+” <20% increase in NMNAT2 luciferase activity.)
CC(=O)c1cn(CC(=O)NCc2ccco2)c2ccccc12 [Compound 181145]	+ (“+” <20% increase in NMNAT2 luciferase activity.)
O=C(CCc1cn(Cc2ccccc2F)c2ccccc12)NCc1ccco1 [Compound 181117]	+ (“+” <20% increase in NMNAT2 luciferase activity.)
O=C(CN1C(=O)c2cccc3cccc1c23)NCc1ccco1 [Compound 181104]	+ (“+” <20% increase in NMNAT2 luciferase activity.)
Cc1ccc(CNC(=O)Cn2c(=O)c(=O)n(C)c3ccccc32)o1 [Compound 181137]	+ (“+” <20% increase in NMNAT2 luciferase activity.)
Cc1cc(C)n(CC(=O)NCC2=CC=CC2)c(=O)c1C#N [Compound 181129]	+ (“+” <20% increase in NMNAT2 luciferase activity.)
O=C(NCCn1ccc2ccc(Cl)cc21)c1ccco1 [Compound 181156]	+ (“+” <20% increase in NMNAT2 luciferase activity.)
Cc1cc2c(=O)n(CC(=O)NCc3ccco3)ccc2s1 [Compound 181140]	+ (“+” <20% increase in NMNAT2 luciferase activity.)
CCn1c(=O)c(=O)n(CC(=O)NCc2ccc(C)o2)c2ccccc21 [Compound 181139]	+ (“+” <20% increase in NMNAT2 luciferase activity.)
